These results are taken from patent publication US12594255B2, “Lipids with odd number of carbon atoms and their use as pharmaceutical composition or nutritional supplement” (SunRegen Healthcare AG, priority 2016, dated 2026).

The test system of series [1] is mouse primary cortical neurons challenged with Aβ1-42 oligomers (AβO). Kind of series: AβO-induced neurotoxicity, 48-h pre-incubation with test item, MTT assay. It counts as cell-based. The settings on record: 48 h pre-incubation, then 1 μM AβO 24 h. The procedure: Mouse primary cortical neurons were pre-incubated for 48 h with vehicle, 0.05 μM DHA (used as positive control) or different concentrations of Compound C. Then, cortical neurons were treated for 24 h with vehicle (FIG. 1 left) or 1 μM AβO ([…]) and cell viability was determined using the MTT assay (n=3 determinations per condition, 1 independent experiment), Data are represented as % of vehicle control (Mean*SD). […]
(§1) Cortical neurons from embryonic day 16-17 are prepared from C57BL6/J mouse fetuses. In brief, dissociated cortical cells were plated (50.000 cells/well) in 48-well plates pre-coated with 1.5 μg/mL polyornithine (Sigma). Cells were cultured in a chemically defined Dulbecco's modified eagle's/F12 medium free of serum and supplemented with hormones, proteins and salts. Cultures were kept at 35° C. in a humidified 6% CO2 atmosphere. Mouse cortical neurons were exposed for 24 h to 1.0 μM AβO after a 48-h pre-incubation with vehicle or different concentrations of Compound C. The AβO-induced neurotoxicity was evaluated using the MTT assay.
All treatments were done in triplicates in 48-well plates. Cells were incubated with vehicle or 1 μM AβO in the absence or presence of different lipids at the indicated final concentrations) added at 48 hours before ADO. Cells were incubated with AβO for 24 h in a final volume of 140 μL per well.
For positive controls, cells are treated similarly (48 hours before AβO) in the presence of 0.05 μM DHA.
Following AβO-treatment, cell viability was measured using the MTT assay. Briefly, cells were incubated at 35° C. for 1 h with MTT (Sigma, Cat #M2128-10G. Lot #MKBH7489V). For that purpose, 14 μL of 5 mg/mL MITT (solubilized in PBS) were added in each well. After incubation, medium was removed and cells were lyzed with 150 μL DMSO for 10 minutes and protected from light. After complete solubilization of formazan, absorbance at 570 nm was recorded.
as §1, with “cells are” for “cells were”, “Cells are” for “Cells were”, “Cultures are” for “Cultures were”, “of herb B extracts.” for “of Compound C.”, “assay. […]” for “assay.”
A general note: Tetrazolium assays rely on reduction of a dye to a coloured formazan, in cell work by metabolically active cells.

For series [2], the system named is mouse primary cortical neurons challenged with camptothecin. Kind of series: Camptothecin-induced neuronal death, test item added 48 hours before camptothecin. It counts as cell-based. The settings on record: for neuroprotective and anti-apoptotic effects: 48 h before 1 μM camptothecin; for cell viability: 48 h before 1 μM camptothecin 24 h. The procedure:
Mouse primary neurons were incubated with vehicle or toxins in the absence or presence of different concentrations of compound C added 48 hours before toxin's challenge. After the addition of toxins, cells were further incubated for 24 h.
Mouse primary neurons were incubated with vehicle or toxins in the absence or presence of different concentrations of Herb B added 48 hours before camptothecin's challenge. After the addition of Camptothecin, cells were further incubated for 24 h. Data are represented as % of vehicle control (Mean±SD).
The neuro-protective effects of different concentrations of compound C was investigated using mouse primary cortical neurons challenged with camptothecin, which is a cytotoxic quinoline alkaloid which inhibits the DNA enzyme topoisomerase I (topo I).
Mouse primary neurons were incubated with vehicle or toxins in the absence or presence of different concentrations of compound C added 48 hours before toxin's challenge. After the addition of 1 μM camptothecin, cells were further incubated for 24 h in a final volume of 140 μL per well.
Cells were incubated with vehicle or toxins (at the indicated final concentrations described in plate-layout below) in the absence or presence of different concentrations of compound C added 48 hours before toxin's challenge. After the addition of 1 μM camptothecin, cells were further incubated for 24 h in a final volume of 140 μL per well.

Series [3] has as its system age-induced protein aggregates in Saccharomyces cerevisiae. Kind of series: Age-induced protein aggregates (Hsp104-GFP foci) in old yeast cells. It counts as cell-based. The following applies: for proportion of cells with a Hsp104-GFP focus: vehicle only 58.7±10.6%. The procedure:
FIG. 9a: Representative images of a young cell, or old cells untreated or treated with Herb B (10 μg/ml) or Compound C (30 μM). Upper panels are maximum projection of z-series stacks of cells stained with fluorescent brightener 28 and imaged in the DAPI channel to reveal bud scars. Lower panel are single focal planes images of the same cells that express Hsp104-GFP and imaged in the GFP channel. Arrow point at an Hsp104-GFP focus.
FIG. 9c: Percentage of cells with an Hsp104-GFP focus. Cells were imaged with the same illumination conditions. All old cells imaged were included (between 75 and 94 cells). All focal planes were examined Mean±SD. P values are adjusted p values from an ANOVA comparing to vehicle only.
FIG. 9d: Average fluorescence intensity of Hsp104-GFP in the cell as a proxy for Hsp104-GFP concentration. Mean±SD. P values are adjusted p values obtained from ANOVA comparing to vehicle only
To test an effect on the formation of age-induced Hsp104-GFP foci, old cells were obtained and cultivated in the presence of Compound C (1 μM, 10 μM and 30 μM). Herb B (10 μg/ml), ethanol (0.3%, vehicle only) or in the absence of any treatment. Untreated young cells were obtained through a simple exponential growth.
Age was determined by staining bud scars with fluorescent brightener 28. […] (FIG. 9b)

The nature of series [4]: Solubility of compound C in stock solutions. It counts as physicochemical.

By EC50 is commonly meant the midpoint of the concentration-response curve. In general, viability refers to a read-out of living cells in per cent, often relative to untreated cells. In series [1] (Compound C 320 nM), `CCCCCCCCCCCCCCC(=O)OCC(COC(=O)CCCCCCCCCCCCCC)OC(=O)CCCCCCCCCCCCCC` [Compound C, tripentadecanoin] registered a maximal neuroprotective effect of 100%. Moreover, the concentration for a half-maximal effect (EC50) in series [1] (Mus musculus, Primary cortical neuron, expected around, read-out: EC50 effect (neuroprotection)) is about 66 nM. Also, in series [1] (Mus musculus, Primary cortical neuron, Compound C 320 nM, read-out: cell viability), the viability at 0.32 µM was 112 ± 1.5%. The “neuroprotective and anti-apoptotic effects” value in series [2] (10 nM) came out at 37.3%; in series [2] (100 nM) it was 37.2%. Besides, the cell viability is reported as 73.5±1.5 % of control in series [2] (10 nM) and 73.4±5.9 % of control in series [2] (100 nM). The “proportion of cells with a Hsp104-GFP focus” value in series [3] (1 μM, not statistically significant) is on record as 46.2±4.8%; in series [3] (10 μM), 37.5±6.0%; in series [3] (30 μM), 34.3±13.7%. In addition, the “intensity of Hsp104-GFP (increase in old vs young cells)” value in series [3] (compound C 1, 10, 30 μM, herb B 10 μg/ml) was “reduced the extent of this increase”. Further, the “solubility in stock solutions” value in series [4] is “not fully soluble”.
